Experimental findings from ChEMBL document CHEMBL1156829 (Proc Natl Acad Sci U S A, 2008) are described below.

Each structure is given as a SMILES string. Values joined by “and” are separate entries in the source; they are usually repeats but may differ in a detail not shown here. Equal values may be shown once.

For orientation: EC50 means the concentration giving half of the maximal effect. In general, CC50 refers to the concentration at which the toxic effect on the cells reaches its halfway point.

In data set [1] the test system is Plasmodium falciparum. Description: NOVARTIS: Inhibition of Plasmodium falciparum 3D7 (drug-susceptible) proliferation in erythrocyte-based infection assay. Format: functional, organism-based.
Data set [2] concerns Plasmodium falciparum. Description: NOVARTIS: Inhibition of Plasmodium falciparum W2 (drug-resistant) proliferation in erythrocyte-based infection assay. Type of data set: functional, organism-based. The settings on record: read-out: EC50.
The test system of the next data set is Huh-7. Description: NOVARTIS: Cytotoxicity against human hepatocellular carcinoma cell line (Huh7). The settings on record: huh-7, read-out: CC50. Format: toxicity, cell-based.

For the compound `C/C(C=NNC(=O)c1ccco1)=C\c1ccccc1`, the EC50 in the data set with Plasmodium falciparum [1] was > 1760 nM and 486 nM; with Plasmodium falciparum [2] (Plasmodium falciparum, W2), over 1100 nM; with Plasmodium falciparum [2], 650 nM. Further, the CC50 in the data set with Huh-7 is over 100000 nM.
As for `CC[n+]1c(C=C2Sc3ccccc3N2CCO)sc2ccccc21`, the EC50 was 336 nM in the data set on Plasmodium falciparum [1] and 511 nM in the data set on Plasmodium falciparum [2]. For the same compound, in the data set with Huh-7, the CC50 is over 100000 nM.
`C=C[C@H]1C[N@]2CC[C@H]1C[C@@H]2[C@@H](OC(=O)Cc1cccs1)c1ccnc2ccccc12`: the EC50 in the data set with Plasmodium falciparum [1] was 9.8 nM and 62.2 nM; with Plasmodium falciparum [2] (Plasmodium falciparum, W2) it was 46.6 nM; in the data set with Plasmodium falciparum [2], 78.7 nM. For the same compound, the CC50 in the data set on Huh-7 is > 10000 nM and 95100 nM.
Take `C[n+]1ccc(/C=C/c2c[nH]c3ccccc23)cc1`: the EC50 in the data set with Plasmodium falciparum [1] was 136 nM and 472 nM; with Plasmodium falciparum [2] (Plasmodium falciparum, W2), 63.2 nM; in the data set on Plasmodium falciparum [2], 95.9 nM. Further, the CC50 in the data set with Huh-7 is over 100000 nM.
For the compound `CCN1/C(=C/c2[se]c3ccccc3[n+]2CC)C=Cc2cc(OC)ccc21`, the figures for the EC50 in the data set with Plasmodium falciparum [1] and in the data set on Plasmodium falciparum [2] were 171 nM and 266 nM, respectively. Further, the CC50 in the data set on Huh-7 came to 4950 nM.
Consider `COc1cc(/C=C2/SC(=Nc3ccccc3)NC2=O)ccc1OCc1ccccc1Cl`, for which the concentration for a half-maximal effect (EC50) in the data set on Plasmodium falciparum [1] is 692 nM; in the data set on Plasmodium falciparum [1] (Plasmodium falciparum, 3D7), 957 nM; with Plasmodium falciparum [2] (Plasmodium falciparum, W2) it was 494 nM; in the data set with Plasmodium falciparum [2], 522 nM. Further, the CC50 with Huh-7 was over 100000 nM.
Turning to `CCN1C(=Cc2sc3ccc(OC)cc3[n+]2CC)C=Cc2ccccc21` [listing 1 of 2 here], the EC50 with Plasmodium falciparum [1] is 20.4 nM; in the data set with Plasmodium falciparum [2] it was 208 nM. Moreover, in the data set on Huh-7, the CC50 turned out to be 24800 nM.
For the compound `CCN1C(=Cc2ccc3ccccc3[n+]2CC)C=Cc2sc3ccccc3c21`, the EC50 in the data set with Plasmodium falciparum [1] was 188 nM and 50.9 nM; in the data set on Plasmodium falciparum [2], 44 nM and 148 nM. In addition, the CC50 in the data set with Huh-7 is 2970 nM and 27800 nM.
As for `Cc1occc1C(=O)NN=C/C(Cl)=C/c1ccccc1`, the EC50 with Plasmodium falciparum [1] was 291 nM; in the data set on Plasmodium falciparum [1] (Plasmodium falciparum, 3D7), 255 nM; in the data set on Plasmodium falciparum [2], 116 nM and 392 nM. For the same compound, in the data set with Huh-7, the CC50 was > 10000 nM and 64300 nM.
As to `C[n+]1ccc(C=Cc2ccc(O)cc2)cc1`, the EC50 with Plasmodium falciparum [1] is 1430 nM; in the data set with Plasmodium falciparum [2], 593 nM. For the same compound, the CC50 in the data set with Huh-7 was over 100000 nM.
On to `C=CCN1C=CC(=Cc2sc3ccccc3[n+]2C)c2ccccc21`, for which the EC50 was found to be 89.7 nM with Plasmodium falciparum [1] and 115 nM with Plasmodium falciparum [2]. Moreover, the CC50 in the data set with Huh-7 was 14200 nM.
Consider `O=C1NC(=Nc2ccccc2)S/C1=C/c1ccc(F)c(Br)c1`, for which the EC50 was over 12500 nM in the data set with Plasmodium falciparum [1]; 1630 nM and > 94.2 nM in the data set with Plasmodium falciparum [2]. The CC50 in the data set with Huh-7 is over 100000 nM.
Turning to `CCN1C(=Cc2sc3cc(NC(C)=O)ccc3[n+]2CC)C=Cc2cc(C)ccc21`, the EC50 with Plasmodium falciparum [1] came to 161 nM; with Plasmodium falciparum [2], 581 nM. The CC50 with Huh-7 is over 90600 nM.
Take `C=CCN1C(=O)/C(=C2/Sc3ccc(OC)cc3N2C)SC1=Nc1ccccc1-c1ccccc1`: the EC50 with Plasmodium falciparum [1] was determined as 2120 nM; in the data set on Plasmodium falciparum [1] (Plasmodium falciparum, 3D7), 1180 nM; in the data set on Plasmodium falciparum [2] (Plasmodium falciparum, W2), 488 nM; in the data set on Plasmodium falciparum [2] it was 838 nM. Also, in the data set on Huh-7, the CC50 was over 100000 nM.
For `CCN1C=C/C(=C\c2cccc[n+]2C)c2ccccc21`, the EC50 in the data set on Plasmodium falciparum [1] is 1030 nM; in the data set with Plasmodium falciparum [1] (Plasmodium falciparum, 3D7), 827 nM; in the data set with Plasmodium falciparum [2], 683 nM and 1960 nM. The CC50 in the data set with Huh-7 was over 100000 nM.
As for `CC[n+]1c(C=CN(C)c2ccccc2)sc2ccc(Cl)cc21`, the EC50 in the data set with Plasmodium falciparum [1] was found to be 223 nM; in the data set on Plasmodium falciparum [1] (Plasmodium falciparum, 3D7), 156 nM; in the data set with Plasmodium falciparum [2] (Plasmodium falciparum, W2), 352 nM; in the data set with Plasmodium falciparum [2], 367 nM. For the same compound, the CC50 with Huh-7 is > 10000 nM and 23000 nM.
Turning to `CC[n+]1c(/C=C2\Sc3oc4ccccc4c3N2C)ccc2cc(C)ccc21`, the EC50 with Plasmodium falciparum [1] is 87.5 nM and 253 nM; in the data set with Plasmodium falciparum [2] (Plasmodium falciparum, W2), 84.7 nM; in the data set on Plasmodium falciparum [2], 89.7 nM. The CC50 in the data set with Huh-7 is 3590 nM and 13600 nM.
For the compound `OCC[n+]1ccc(/C=C/c2c[nH]c3ccccc23)cc1`, the EC50 stood at 343 nM in the data set on Plasmodium falciparum [1]; 390 nM with Plasmodium falciparum [1] (Plasmodium falciparum, 3D7); 554 nM with Plasmodium falciparum [2] (Plasmodium falciparum, W2); 396 nM with Plasmodium falciparum [2]. Moreover, in the data set on Huh-7, the CC50 is over 100000 nM.
For the compound `CCN1C(=Cc2sc3ccc(OC)cc3[n+]2CC)C=Cc2ccccc21` [listing 2 of 2 here], the EC50 with Plasmodium falciparum [1] worked out at 417 nM; in the data set on Plasmodium falciparum [2] (Plasmodium falciparum, W2), 249 nM. In the data set with Huh-7, the CC50 was determined as 9870 nM.
Take `CCn1c(/C=C/N(C)c2ccccc2)[n+](CC)c2cc(Cl)ccc21`: the EC50 in the data set with Plasmodium falciparum [1] is 391 nM and 91.3 nM; with Plasmodium falciparum [2], 513 nM and 87.8 nM. The CC50 in the data set on Huh-7 was 22600 nM and > 10000 nM.
With `CCN1/C(=C/c2ccc3cc(OC)ccc3[n+]2CC)Sc2ccc(NC(C)=O)cc21`, the EC50 with Plasmodium falciparum [1] is 31.1 nM and 113 nM; with Plasmodium falciparum [2] (Plasmodium falciparum, W2), 82.6 nM; with Plasmodium falciparum [2], 119 nM. Further, the CC50 with Huh-7 is over 52000 nM.
With `CCN1C(=Cc2sc3ccccc3[n+]2C)C=Cc2ccc(C)cc21`, the figures for the EC50 in the data set with Plasmodium falciparum [1] and with Plasmodium falciparum [2] were 122 nM and 291 nM, respectively. Also, the CC50 in the data set with Huh-7 was 11400 nM.
For `CCN1C(=Cc2sc3ccc(Cl)cc3[n+]2CC)C=Cc2cc(OC)ccc21` the same measures were 16.7 nM, 91.8 nM and 11900 nM.
In the case of `CCN(CC)C1SC=C(c2ccc([N+](=O)[O-])cc2)S1` (stereo unspecified), the EC50 in the data set on Plasmodium falciparum [1] is 549 nM; in the data set on Plasmodium falciparum [1] (Plasmodium falciparum, 3D7), 446 nM; with Plasmodium falciparum [2], 911 nM and 390 nM. For the same compound, the CC50 in the data set with Huh-7 is over 96000 nM.
With `CCN1/C(=C/C=C/c2sc3ccccc3[n+]2CC)Sc2ccccc21`, the EC50 in the data set on Plasmodium falciparum [1] was 258 nM; in the data set with Plasmodium falciparum [2], 164 nM. In the data set on Huh-7, the CC50 is 9030 nM.
